Source: patent publication US20080207533A1, “Pharmaceutical Compositions” (priority 2005, published 2008)
Where a name gives a salt, the structure may show the parent alone.

Experiment: Degradation (hydrolysis) of Compound I after wet granulation with water
Format: physicochemical
Conditions: granulation liquid deionized water; LOD value less than or equal to about 1% for the dried granulate
Method: Once blended, a granulation liquid, deionized water, is added for wet kneading. The impeller and chopper speeds are increased to setting 2 (e.g., 306 rpm and 500 rpm, respectively, for the impeller and chopper). The kneading is conducted at room temperature. After granulation, the moist granulates are dried in a fluid-bed dryer with an air inlet temperature of approximately 70° C. to obtain granulates. The moist granulates are dried such that there is a LOD value below 1.0%. The granulates are subsequently sieved using a screen with a mesh size of 1.25 mm or 0.8 mm. As mentioned above, Compound I is a salt of an ester which is potentially sensitive to hydrolysis in the presence of water.

SMILES: CC(C)[C@H](N)C(=O)O[C@@H]1[C@@H](CO)O[C@@H](n2ccc(N)nc2=O)[C@]1(C)O [Compound I, dihydrochloride salt]
- degradation, e.g., due to hydrolysis, after wet granulation: does not result in an increase in degradation
